Results from EP0457908A1, “HYDROCHLORIDE 2,3,3a,4,5,6-HEXAHYDRO-8-CYCLOHEXYL-1H-PYRAZINO (3,2,1-j,k)CARBAZOL, METHOD OF OBTAINING IT AND A PHARMACEUTICAL PREPARATION OF ANTIDEPRESSIVE ACTION BASED ON IT” (priority 1989, dated 1991).

How the values were obtained:
Solubility = assay type: physicochemical
mice = assay: Acute toxicity, mice; assay type: in vivo
From the text: The acute and chronical toxicity of the compound according to the present invention was studied on mice, rats and rabbits.

mice and rats = assay: Carcinogenic properties, chronic experiment; assay type: in vivo
white rats = assay: Stereotypy induced by d,l-amphetamine; assay type: in vivo; details: distilled water = 100
Experimental: To evaluate the influence on stereotypy, the experiments were carried out on white rats of both sexes with a mass of 100-150 g. […] Stereotypy was assessed in points of from to 3 (after Janssen et al., 1967).

monoaminoxidase [1] = assay: Monoaminoxidase activity in brain and liver homogenates after oral dosing; assay type: in vivo, male white rats
Experimental: (§1) The effect of the compound according to the present invention on the activity of monoaminoxidase was studied in special biochemical investigations.
(§2) The experiments were conducted in vivo on male white rats with a mass of 180-200 g. The compound in the doses of 5, 10, 25 and 50 mg/kg was administered orally. An equal volume of a […] of NaCl was administered to control animals. 1.5 hour after administration of the drug the animals were killed. […] The activity of monoaminoxidase was determined in 50% homogenates of the liver and brains of rate prepared on the basis of a 0.1 M phosphate buffer (pH = 7.4) containing 2% of a detergent - Trytol X-100. The substrates were used in concentrations of serotonin 10 µmol, tyramine 6 µmol per sample. The activity of monoaminoxidase was evaluated by liberation of ammonia during incubation of the samples for 50 minutes at the temperature of 37 °C in an oxygen atmosphere.
(§3) Protein in homogenates of the rat liver and brain was determined following the Peterson procedure (1977).

monoaminoxidase [2] = biological target: T1, monoaminoxidase (Rattus norvegicus, UniProt P21396); assay: as above; assay type: in vivo, male white rats
T1 sequence (P21396 1-526): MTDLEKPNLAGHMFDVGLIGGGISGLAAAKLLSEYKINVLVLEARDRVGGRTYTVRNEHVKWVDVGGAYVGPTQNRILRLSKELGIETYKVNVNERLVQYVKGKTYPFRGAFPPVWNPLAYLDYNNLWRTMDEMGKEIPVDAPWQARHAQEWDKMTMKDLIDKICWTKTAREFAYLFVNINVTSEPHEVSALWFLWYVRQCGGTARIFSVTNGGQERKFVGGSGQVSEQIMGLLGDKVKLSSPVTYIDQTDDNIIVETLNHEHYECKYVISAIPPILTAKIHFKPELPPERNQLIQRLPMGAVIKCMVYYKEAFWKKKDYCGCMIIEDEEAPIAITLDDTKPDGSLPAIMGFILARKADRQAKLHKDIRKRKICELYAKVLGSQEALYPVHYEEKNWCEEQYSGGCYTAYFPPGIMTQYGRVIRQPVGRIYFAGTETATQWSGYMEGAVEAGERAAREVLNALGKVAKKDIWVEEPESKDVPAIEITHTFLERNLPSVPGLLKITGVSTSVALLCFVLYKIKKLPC
Experimental: as §1, §2, §3

[3] = test system: normotensive female rats of the Vistar line; assay: Influence on the pressor effect of tyramine
Experimental: The experiments were conducted on conscious normotensive female rats of the Vistar line with a mass of 210-250 g placed under conditions of a free behaviour.

rabbits = assay: Bioelectrical activity of the brain (electroencephalogram), rabbits; assay type: in vivo
From the text: The study of the effect on the bioelectrical activity of the brain was effected in acute experiments using 8 consious cats immobilized with diplacin with a mass of 2.5-3.4 kg under conditions of a controlled breathing and 25 rabbits with a mass of 2.6-3.1 kg with chronically implanted electrodes. Recorded on an electroencephalograph was an electroencephalogram of the sensomotor, parietal and visual regions of the cerebral cortex in cats, plus that of the reticular formation of the midbrain, dorsal hippocamp and amygdala in rabbits.

male rats = assay: Conditional reflex of passive avoidance after amnesia (antiamnestic effect); assay type: in vivo; details: 1 mg/kg oral
Experimental: Also studied was the effect of the compound according to the present invention on reproduction of the memory traces upon amnesia.
The experiments were carried out using male rats of a mass of 180-220 g.
The antiamnestic effect of the compound according to the present invention was assessed by the method of a conditional reflex of a passive avoidance with a subsequent use, as amnesic factors, of an electric shock (50 mA, 0.3 ms) through ear electrodes or scopolamine (1 mg/kg hypodermally).
The learning of the conditional reflex of a passive avoidance was effected by the "Step-down" method (Izquerdo, 1981) in an experimental unit consisting of a 30x30x40 cm chamber with an electrified floor having in its centre a plastic platform of 10x15x0.5 cm size. A rat was placed onto the platform and a latent period of its escape therefrom was recorded (in seconds). When escaping the platform onto the floor, the rat was subjected to an electric irritation on paws (0.5 mA, 10 seconds) that made it to climb the platform. The learning course took 6 sessions, each of 3 minutes duration. The conditional response was regarded as acquired if an animal remained on the platform for 1 minute.
The amnesic effect was produced immediately after learning course and 30 minutes thereafter the compound according to the present invention was administered in the doses of 1 and 3 mg/kg or (for comparison) pyracetam was administered in the doses of 100, 300, 600 and 1,000 mg/kg. The reproduction of the memory trace was assessed 24 hours after the electric shock and 2.5 hours after administration of scopolamine.

[4] = 5 mg/kg oral, 1.5 hour after administration
[5] = 10 mg/kg oral, 1.5 hour after administration
[6] = 25 mg/kg oral, 1.5 hour after administration (Table 5)
[7] = 25 mg/kg orally, time 1.5 hours (Table 6)
[8] = 25 mg/kg orally, time 6.0 hours
[9] = 25 mg/kg orally, time 48.0 hours
[10] = 50 mg/kg oral, 1.5 hour after administration

2,3,3a,4,5,6-hexahydro-8-cyclohexyl-1H-pyrazino-(3,2,1-j,k)-carbazole hydrochloride [Compound of the present invention]
solubility in a 95% ethanol and chloroform (Solubility): very sparingly soluble | solubility in water and ether (Solubility): substantially insoluble | LD₅₀ (mice; oral administration, mice): 1,300 mg/kg | LD₅₀ (mice; white mice): 1.3 g/kg | carcinogenic properties (mice and rats): did not reveal carcinogenic properties | Stereotypy (tolal, for 4 measurements for 4 hours after hypodermal administration of d,l-amphetamine), % (white rats; oral dose 2.5 mg/kg): 145% | Stereotypy (tolal, for 4 measurements for 4 hours after hypodermal administration of d,l-amphetamine), % (white rats; oral dose 5.0 mg/kg): 170% | Stereotypy (tolal, for 4 measurements for 4 hours after hypodermal administration of d,l-amphetamine), % (white rats; oral dose 10.0 mg/kg): 225% | Inhibition of deamination, % (M±m), Brain, Tyramine (monoaminoxidase [1]; [4]): 17±4.2% | Inhibition of deamination, % (M±m), Liver, Tyramine (monoaminoxidase [1]; [4]): 0% | Inhibition of deamination, % (M±m), Brain, Tyramine (monoaminoxidase [1]; [5]): 16.6±3.4% | Inhibition of deamination, % (M±m), Liver, Tyramine (monoaminoxidase [1]; [5]): 0% | Inhibition of deamination, % (M±m), Brain, Tyramine (monoaminoxidase [1]; [6]): 40±3.0% | Inhibition of deamination, % (M±m), Liver, Tyramine (monoaminoxidase [1]; [6]): 0% | time after which the activity of monoaminoxidase was fully restored (monoaminoxidase [1]; 25 mg/kg orally): 48 h | Inhibition of deamination, % (M±m), Brain, Tyramine (monoaminoxidase [1]; [7]): 40.0±3.0% | Inhibition of deamination, % (M±m), Liver, Tyramine (monoaminoxidase [1]; [7]): 0% | Inhibition of deamination, % (M±m), Brain, Tyramine (monoaminoxidase [1]; [8]): 36.0±9.3% | Inhibition of deamination, % (M±m), Liver, Tyramine (monoaminoxidase [1]; [8]): 0% | Inhibition of deamination, % (M±m), Brain, Tyramine (monoaminoxidase [1]; [9]): 2.5±1.1% | Inhibition of deamination, % (M±m), Liver, Tyramine (monoaminoxidase [1]; [9]): 0% | Inhibition of deamination, % (M±m), Brain, Tyramine (monoaminoxidase [1]; [10]): 43±6.6% | Inhibition of deamination, % (M±m), Liver, Tyramine (monoaminoxidase [1]; [10]): 0% | character of the inhibiting effect on the activity of monoaminoxidase (monoaminoxidase [1]; rat, in vivo): reversible selective inhibitor of monoaminoxidase of the A type | Inhibition of deamination, % (M±m), Liver, Serotonin (monoaminoxidase [2]; [4]): 36±9.0% | Inhibition of deamination, % (M±m), Brain, Serotonin (monoaminoxidase [2]; 5 mg/kg oral, 1.5 hour after administration, listed as Compound of the invention, hydrochloride): 60±6.3% | Inhibition of deamination, % (M±m), Brain, Serotonin (monoaminoxidase [2]; 5 mg/kg oral, 1.5 hour after administration, listed as compound according to the present invention, hydrochloride): 60% | Inhibition of deamination, % (M±m), Brain, Serotonin (monoaminoxidase [2]; [5]): 61±7.6% | Inhibition of deamination, % (M±m), Liver, Serotonin (monoaminoxidase [2]; [5]): 27±6.7% | Inhibition of deamination, % (M±m), Brain, Serotonin (monoaminoxidase [2]; [6]): 71±7.6% | Inhibition of deamination, % (M±m), Liver, Serotonin (monoaminoxidase [2]; [6]): 64±6.4% | Inhibition of deamination, % (M±m), Brain, Serotonin (monoaminoxidase [2]; [7]): 71.0±2.0% | Inhibition of deamination, % (M±m), Liver, Serotonin (monoaminoxidase [2]; [7]): 64.0±6.4% | Inhibition of deamination, % (M±m), Brain, Serotonin (monoaminoxidase [2]; [8]): 66.5±3.0% | Inhibition of deamination, % (M±m), Liver, Serotonin (monoaminoxidase [2]; [8]): 53.0±3.0% | Inhibition of deamination, % (M±m), Brain, Serotonin (monoaminoxidase [2]; [9]): 14.0±4.8% | Inhibition of deamination, % (M±m), Liver, Serotonin (monoaminoxidase [2]; [9]): 0% | Inhibition of deamination, % (M±m), Brain, Serotonin (monoaminoxidase [2]; [10]): 93±3.0% | Inhibition of deamination, % (M±m), Liver, Serotonin (monoaminoxidase [2]; [10]): 89±2.7% | enhanced effect of tyramine ([3]; 5 mg/kg orally for 5 days): no enhanced effect of tyramine was observed | time after administration at which the enhanced effect of tyramine was noticed ([3]; 25 mg/kg orally): 6 to 18 h | enhanced the pressor effect of tyramine ([3]; 25 mg/kg orally, tyramine 20 mg/kg orally): 2 times | amplitude of sinusoidal regular waves (teta-activity) (rabbits; 2 mg/kg, rabbits, hippocampus): 150-200 µV | frequency of sinusoidal regular waves (teta-activity) (rabbits; 2 mg/kg, rabbits, hippocampus): 4-6 oscillations per second | frequency of regular low-amplitude rhythms (rabbits; 2 mg/kg, rabbits, visual, parietal regions and reticular formation of the midbrain): 5-7 oscillations per second | time after administration at which the variations in the electroencephalogram appeared (rabbits; 2 mg/kg, species not given): 75-90 minutes | time after administration at which the effect of activation was recorded (rabbits; 5 mg/kg, species not given): 45 to 60 min | Number of rats, %, remained on the platform for 1 minute, 2.5 hours after administration of scopolamine (1 mg/kg hypodermally) (male rats; amnesia control 10±3.3, distilled water 85±2.0): 22±6.0% | Number of rats, %, remained on the platform for 1 minute, 1 day after electric shock (male rats; electroshock alone 14.2±3.0, distilled water 85±2.0): 25±3.2%
